Publication PMC11650849, “Brain endothelial permeability, transport, and flow assessed over 10 orders of magnitude using the in situ brain perfusion technique” (Fluids and Barriers of the CNS, 2024)
Like-named read-outs stand apart in the source and are kept apart here.

Legend:
[1] = rat
[2] = rat in vivo measurements; cited from earlier work
[3] = ref Fenstermacher (papers of the 1990s and 2000s); cited from earlier work
in vivo = conditions: rat, pH 7.4
[4] = Neutral fraction at pH 7.4 calculated from pKa; type: physicochemical
[5] = cited from earlier work
[6] = rat, in vivo; cited from earlier work
[7] = rat; remark: listed apart in the source
[8] = cited from earlier work; remark: listed apart in the source
[9] = pH 7.4
GLUT1 = molecular target: T1, GLUT1 (Rattus norvegicus, UniProt P11167); test: In situ brain perfusion, facilitated nutrient transport by GLUT1; type: in vivo; conditions: facilitated nutrients
T1 construct: from tissue; host or cells: brain vascular endothelium (BBB) of the in situ perfused brain
T1 sequence (P11167 1-492): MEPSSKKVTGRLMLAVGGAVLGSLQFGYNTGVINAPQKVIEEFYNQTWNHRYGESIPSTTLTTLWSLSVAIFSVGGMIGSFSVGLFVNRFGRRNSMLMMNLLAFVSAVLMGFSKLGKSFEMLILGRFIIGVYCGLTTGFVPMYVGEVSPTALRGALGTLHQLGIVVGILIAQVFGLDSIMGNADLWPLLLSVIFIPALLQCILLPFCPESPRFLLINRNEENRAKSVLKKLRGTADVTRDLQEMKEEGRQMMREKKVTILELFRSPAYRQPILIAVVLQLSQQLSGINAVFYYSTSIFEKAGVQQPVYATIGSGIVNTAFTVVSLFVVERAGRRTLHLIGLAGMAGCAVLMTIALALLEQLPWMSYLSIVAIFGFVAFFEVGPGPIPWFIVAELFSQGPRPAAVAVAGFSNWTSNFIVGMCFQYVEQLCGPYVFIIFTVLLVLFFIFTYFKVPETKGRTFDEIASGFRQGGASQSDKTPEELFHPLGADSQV

[10] = ref Chou and Rowland [106]; cited from earlier work
MCT8 L-T3 Transporter = MCT8 L-T3 Transporter (Rattus norvegicus, UniProt Q8K1P8)
Chain of MCT8 L-T3 Transporter (Q8K1P8 whole entry): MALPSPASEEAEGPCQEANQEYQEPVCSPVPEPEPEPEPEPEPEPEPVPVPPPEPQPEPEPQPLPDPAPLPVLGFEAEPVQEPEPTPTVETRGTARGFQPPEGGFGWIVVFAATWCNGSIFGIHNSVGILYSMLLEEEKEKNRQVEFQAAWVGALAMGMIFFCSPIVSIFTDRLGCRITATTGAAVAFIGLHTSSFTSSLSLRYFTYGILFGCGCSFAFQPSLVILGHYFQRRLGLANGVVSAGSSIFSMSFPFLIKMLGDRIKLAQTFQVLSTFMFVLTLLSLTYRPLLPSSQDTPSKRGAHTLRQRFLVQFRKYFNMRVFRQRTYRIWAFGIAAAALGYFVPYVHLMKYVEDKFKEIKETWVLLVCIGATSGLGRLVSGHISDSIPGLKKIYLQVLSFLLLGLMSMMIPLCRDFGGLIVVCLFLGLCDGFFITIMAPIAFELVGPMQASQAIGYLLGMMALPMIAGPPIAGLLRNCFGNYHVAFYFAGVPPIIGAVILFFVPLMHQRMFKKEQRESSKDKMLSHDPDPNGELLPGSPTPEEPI

[11] = Octanol/water partition and distribution coefficients; conditions: octanol distribution coefficient, pH 7.4
MAT1 = molecular target: T2, MAT1 (Rattus norvegicus, UniProt P53987); conditions: facilitated nutrients, MAT1, S 30 s
T2 sequence (P53987 1-494): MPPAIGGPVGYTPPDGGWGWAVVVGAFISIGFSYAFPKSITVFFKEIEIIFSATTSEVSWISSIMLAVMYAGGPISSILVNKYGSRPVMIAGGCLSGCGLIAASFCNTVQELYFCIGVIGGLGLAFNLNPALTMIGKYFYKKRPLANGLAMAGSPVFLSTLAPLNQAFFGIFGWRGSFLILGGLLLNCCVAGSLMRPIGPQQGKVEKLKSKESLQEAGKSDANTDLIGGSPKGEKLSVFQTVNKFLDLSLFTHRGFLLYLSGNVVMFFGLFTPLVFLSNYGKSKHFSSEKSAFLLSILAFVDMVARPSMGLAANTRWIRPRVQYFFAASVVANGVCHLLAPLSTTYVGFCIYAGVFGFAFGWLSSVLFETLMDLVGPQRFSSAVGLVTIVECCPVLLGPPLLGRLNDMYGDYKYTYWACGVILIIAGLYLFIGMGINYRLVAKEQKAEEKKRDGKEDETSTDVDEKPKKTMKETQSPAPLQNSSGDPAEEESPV

[12] = neutral fraction at perfusion fluid pH 7.40, calculated from pKa

Cc1cc(=O)n(-c2ccccc2)n1C [Antipyrine]
half-life ([1]; brain): 0.93 min | Brain Vu,br [2]: 1.25 mL/g | brain vascular PS [3]: 0.02 to 0.025 mL/s/g | half-life (in vivo): 1 min | Brain Kin (calculated at brain blood flow […] and rat serum fu): 0.0143 mL/s/g | Extraction (unbound) (calculated at brain blood flow […], free drug): 62.7% | Brain vascular extraction (total) (calculated at brain blood flow […], with rat serum fu): 59.7% | fn (%) [4, 12]: 100% | fu,.p ([5]; rat in vivo measurements): 0.92

CCC1(CC)C(=O)NC(=O)NC1=O [Barbital]
Brain Equilibration t1/2, Measured [6]: 3.27 min | Log Pc ([7]; in vivo, pH 7.4): −4.42 | Log PoS ([7]; in vivo, pH 7.4): −2.32 | Pc ([7]; in vivo, pH 7.4): 38.1 ×10⁻⁶ cm/s | PcS ([7]; in vivo, pH 7.4): 0.0038 mL/s/g | PoS ([7]; in vivo, pH 7.4): 0.00477 mL/s/g | Log Po ([7]; in vivo, pH 7.4): −4.32 | Po ([7]; in vivo, pH 7.4): 47.7 ×10⁻⁶ cm/s | half-life [1]: 3.63 min | half-life ([1]; plasma): 3.6 min | Log Poct ([8]; octanol partition coefficient, ref Hansch et al. [123], Avdeef [46] or other sources): 0.65 | Log Doct pH=7.4 ([8]; ref Hansch et al. [123], Avdeef [46] or other sources): 0.64 | fn (%) [4, 12]: 79.9% | fu,.p ([5]; rat in vivo measurements): 0.985

OC[C@H]1OC(O)[C@H](O)[C@@H](O)[C@@H]1O (stereo partly drawn) [D-Glucose]
Log Doct 7.4 [9]: −1.88 | Log PS (GLUT1; GLUT1): −2.16 | PS (GLUT1; GLUT1, S 16 s): 0.00694 mL/s/g

CN1C(=O)CN=C(c2ccccc2)c2cc(Cl)ccc21 [Diazepam]
fn (%) ([4]; pH 7.4): 100% | PS for liver membrane [10]: 0.4 mL/s/g

OCCO [Ethylene glycol]
Brain Equilibration t1/2, Measured [6]: 17 min | E of permeability markers [7]: 2–4% | BBB PS / PoS over the flow range ([7]; in vivo): 4 - 7x 10^-4 | Log Pc ([7]; in vivo): −5.24 | Log PoS ([7]; in vivo): −3.24 | PS Average used for normalization ([7]; in vivo): 0.0006 mL/s/g | Pc ([7]; in vivo): 5.69 ×10⁻⁶ cm/s | PcS ([7]; in vivo): 0.00057 mL/s/g | PoS ([7]; in vivo): 0.000569 mL/s/g | PoS, flow-corrected ([7]; in vivo): 3–6 10^–4 mL/s/g | Log Po ([7]; in vivo): −5.24 | Po ([7]; in vivo): 5.69 ×10⁻⁶ cm/s | Log Doct pH=7.4 [8]: −1.36 | Brain Equilibration t1/2, Calculated (plasma): 21 min | fn (%) ([4]; pH 7.4): 100% | fu,.p ([5]; rat): 1.00

N[C@@H](Cc1cc(I)c(Oc2ccc(O)c(I)c2)c(I)c1)C(=O)O [L-T3]
PS (MCT8 L-T3 Transporter): 0.0146 mL/s/g

L-Lactate
Log Doct 7.4 [11]: −0.70 | PS (MAT1): 0.00125 mL/s/g
